Reference: US20260053932A1, “COMPOUNDS AND METHODS FOR THE TARGETED DEGRADATION OF ANDROGEN RECEPTOR AND ASSOCIATED METHODS OF USE” (Arvinas Operations, Inc., priority 2020, published 2026)
Read-outs that look alike come from different tables or passages of the source.

Tested on: androgen receptor (AR) in LNCaP and/or VCaP cells
Test: Androgen Receptor ELISA assay (AR degradation)
Type: cell-based
Procedure, shortened: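 VCaP cells grown ≥3 days, then treated 5 h with compound in media containing 1 nM R1881 (10× stock). Cells lysed and AR quantified by sandwich ELISA (mouse AR detection Ab, HRP anti-mouse, TMB). DC50 and Dmax derived from AR degradation.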

[1] = degradation of AR ELISA in LNCaP and/or VCaP cells, Table 2C, read-out: DC50 Code*
[2] = LNCaP and/or VCaP cells, 5 hours incubation, media with R1881, read-out: DC50 Code* (degradation of AR ELISA)

| Compound | DC50 [1] | DC50 [2] | further results |
| --- | --- | --- | --- |
| COc1cc(O[C@H]2CC[C@H](NC(=O)c3cnc(N4CC5(CC(CN(C(C)C)[C@H]6C[C@H](Oc7ccc8c(c7)C(=O)N(C7CCC(=O)NC7=O)C8=O)C6)C5)C4)cn3)CC2)ccc1C#N (some centres unmarked) [Compound 56, N-((1r,4r)-4-(4-cyano-3-methoxyphenoxy)cyclohexyl)-5-(6-((((1r,3r)-3-((2-(2,6-dioxopiperidin-3-yl)-1,3-dioxoisoindolin-5-yl)oxy)cyclobutyl) (isopropyl)amino)methyl)-2-azaspiro[3.3]heptan-2-yl)pyrazine-2-carboxamide] |  | < 1 nM |  |
| COc1cc(O[C@H]2C[C@H](N(CC3CCN(c4cnc(C(=O)N[C@H]5CC[C@H](Oc6cc(C)c(C#N)c(C)c6)CC5)cn4)CC3)C(C)=O)C2)cc2c1C(=O)N(C1CCC(=O)NC1=O)C2=O (some centres unmarked) [Compound 23, N-((1r,4r)-4-(4-cyano-3,5-dimethylphenoxy)cyclohexyl)-5-(4-((N-((1r,3r)-3-((2-(2,6-dioxopiperidin-3-yl)-7-methoxy-1,3-dioxoisoindolin-5-yl)oxy)cyclobutyl)acetamido)methyl)piperidin-1-yl)pyrazine-2-carboxamide] |  | < 1 nM |  |
| N#Cc1ccc(O[C@H]2CC[C@H](NC(=O)c3ccc(N4CCC(CN[C@H]5C[C@H](Oc6ccc7c(c6)C(=O)N(C6CCC(=O)NC6=O)C7=O)C5)CC4)nn3)CC2)cc1Cl (mixture of isomers) [Compound 51, rac-N-((1r,4r)-4-(3-chloro-4-cyanophenoxy)cyclohexyl)-6-(4-((((1r,3r)-3-((2-(2,6-dioxopiperidin-3-yl)-1,3-dioxoisoindolin-5-yl)oxy)cyclobutyl)amino)methyl)piperidin-1-yl)pyridazine-3-carboxamide] |  | < 1 nM |  |
| COc1cc(O[C@H]2CC[C@H](NC(=O)c3cnc(N4CCC(CN(C(C)C)[C@H]5CC[C@H](Oc6ccc7c(c6)C(=O)N(C6CCC(=O)NC6=O)C7=O)CC5)CC4)cn3)CC2)ccc1C#N (some centres unmarked) [Compound 31, N-((1r,4r)-4-(4-cyano-3-methoxyphenoxy)cyclohexyl)-5-(4-((((1r,4r)-4-((2-(2,6-dioxopiperidin-3-yl)-1,3-dioxoisoindolin-5-yl)oxy)cyclohexyl) (isopropyl)amino)methyl)piperidin-1-yl)pyrazine-2-carboxamide] |  | < 1 nM |  |
| COc1cc(O[C@H]2CC[C@H](NC(=O)c3cnc(N4CCC(CN(C(C)C)[C@H]5C[C@H](Oc6ccc7c(c6)C(=O)N(C6CCC(=O)NC6=O)C7)C5)CC4)nc3)CC2)ccc1C#N (some centres unmarked) [Compound 63, N-((1r,4r)-4-(4-cyano-3-methoxyphenoxy)cyclohexyl)-2-(4-((((1r,3r)-3-((2-(2,6-dioxopiperidin-3-yl)-3-oxoisoindolin-5-yl)oxy)cyclobutyl) (isopropyl)amino)methyl)piperidin-1-yl)pyrimidine-5-carboxamide] |  | < 1 nM |  |
| CC(C)N(CC1CCN(c2cnc(C(=O)N[C@H]3CC[C@H](Oc4ccc(C#N)c(Cl)c4)CC3)cn2)CC1)[C@H]1C[C@H](Oc2ccc3c(c2)C(=O)N([C@@H]2C(=O)NC(=O)C[C@H]2C)C3=O)C1 [Compound 75, N-((1r,4r)-4-(3-chloro-4-cyanophenoxy)cyclohexyl)-5-(4-((isopropyl((1S,3r)-3-((2-((3S,4R)-4-methyl-2,6-dioxopiperidin-3-yl)-1,3-dioxoisoindolin-5-yl)oxy)cyclobutyl)amino)methyl)piperidin-1-yl)pyrazine-2-carboxamide] |  | > 100 nM |  |
| CC1(N2C(=O)c3cc(F)c(N4CCN(CC5CCN(c6ccc(C(=O)N[C@H]7CC[C@H](Oc8ccc(C#N)c(Cl)c8)CC7)nn6)CC5)CC4)cc3C2=O)CCC(=O)NC1=O (some centres unmarked) [Compound 69, N-((1r,4r)-4-(3-chloro-4-cyanophenoxy)cyclohexyl)-6-(4-((4-(6-fluoro-2-(3-methyl-2,6-dioxopiperidin-3-yl)-1,3-dioxoisoindolin-5-yl)piperazin-1-yl)methyl)piperidin-1-yl)pyridazine-3-carboxamide] |  | < 1 nM |  |
| CC(C)N(CC1CCN(c2cnc(C(=O)N[C@H]3C(C)(C)[C@H](Oc4ccc(C#N)c(Cl)c4)C3(C)C)cn2)CC1)[C@H]1C[C@H](Oc2ccc3c(c2)CN(C2CCC(=O)NC2=O)C3=O)C1 (some centres unmarked) [compound 113, N-((1r,3r)-3-(3-chloro-4-cyanophenoxy)-2,2,4,4-tetramethylcyclobutyl)-5-(4-((((1r,3r)-3-((2-(2,6-dioxopiperidin-3-yl)-1-oxoisoindolin-5-yl)oxy)cyclobutyl) (isopropyl)amino)methyl)piperidin-1-yl)pyrazine-2-carboxamide] | < 1 nM |  |  |
| COc1cc(O[C@H]2C(C)(C)[C@H](NC(=O)c3cnc(N4CCC(CN(CC[S+]([O-])CC5(C)COC5)[C@H]5C[C@H](Oc6ccc7c(c6)C(=O)N(C6CCC(=O)NC6=O)C7=O)C5)CC4)cn3)C2(C)C)ccc1C#N (mixture of isomers) [compound 243, rac-N-((1r,3r)-3-(4-cyano-3-methoxyphenoxy)-2,2,4,4-tetramethylcyclobutyl)-5-(4-((((1r,3r)-3-((2-(2,6-dioxopiperidin-3-yl)-1,3-dioxoisoindolin-5-yl)oxy)cyclobutyl)(2-(((3-methyloxetan-3-yl)methyl)sulfinyl)ethyl)amino)methyl)piperidin-1-yl)pyrazine-2-carboxamide] |  |  | DC50 (degradation of AR ELISA in LNCaP and/or VCaP cells, read-out: DC50 Code*): 1 to 10 nM |
| CC(C)N(CC1CCN(c2cnc(C(=O)N[C@H]3CC[C@H](Oc4ccc(C#N)c(Cl)c4)CC3)cn2)CC1)[C@H]1C[C@H](Oc2ccc3c(c2)C(=O)N([C@@H]2C(=O)NC(=O)C[C@@H]2C)C3=O)C1 [Compound 76, N-((1r,4r)-4-(3-chloro-4-cyanophenoxy)cyclohexyl)-5-(4-((isopropyl((1S,3r)-3-((2-((3S,4S)-4-methyl-2,6-dioxopiperidin-3-yl)-1,3-dioxoisoindolin-5-yl)oxy)cyclobutyl)amino)methyl)piperidin-1-yl)pyrazine-2-carboxamide] |  | > 100 nM |  |
| CC(C)N(CC1CCN(c2ncc(C(=O)N[C@H]3C(C)(C)[C@H](Oc4ccc(C#N)c(Cl)c4)C3(C)C)cn2)CC1)[C@H]1C[C@H](Oc2ccc3c(c2)CN(C2CCC(=O)NC2=O)C3=O)C1 (some centres unmarked) [compound 80, N-((1r,3r)-3-(3-chloro-4-cyanophenoxy)-2,2,4,4-tetramethylcyclobutyl)-2-(4-((((1r,3r)-3-((2-(2,6-dioxopiperidin-3-yl)-1-oxoisoindolin-5-yl)oxy)cyclobutyl) (isopropyl)amino)methyl)piperidin-1-yl)pyrimidine-5-carboxamide] | < 1 nM |  |  |

More lines, main results first:

| DC50 [1] | DC50 [2] | Compound | further results |
| --- | --- | --- | --- |
| < 1 nM |  | COCCN(CC1CCN(c2ccc(C(=O)N[C@H]3C(C)(C)[C@H](Oc4cc(C)c(C#N)c(C)c4)C3(C)C)cc2)CC1)[C@H]1C[C@H](Oc2cc3c(cc2OC)C(=O)N(C2CCC(=O)NC2=O)C3=O)C1 (mixture of isomers) [compound 170, rac-N-((1r,3r)-3-(4-cyano-3,5-dimethylphenoxy)-2,2,4,4-tetramethylcyclobutyl)-4-(4-((((1r,3r)-3-((2-(2,6-dioxopiperidin-3-yl)-6-methoxy-1,3-dioxoisoindolin-5-yl)oxy)cyclobutyl)(2-methoxyethyl)amino)methyl)piperidin-1-yl)benzamide] |  |
| < 1 nM |  | Cc1cc(O[C@H]2C(C)(C)[C@H](NC(=O)c3cnc(N4CCC(CN(C(C)C)[C@H]5C[C@H](Oc6ccc7c(c6)C(=O)N(C6CCC(=O)NC6=O)C7=O)C5)CC4)nc3C)C2(C)C)cc(C)c1C#N (mixture of isomers) [compound 146, rac-N-((1r,3r)-3-(4-cyano-3,5-dimethylphenoxy)-2,2,4,4-tetramethylcyclobutyl)-2-(4-((((1r,3r)-3-((2-(2,6-dioxopiperidin-3-yl)-1,3-dioxoisoindolin-5-yl)oxy)cyclobutyl) (isopropyl)amino)methyl)piperidin-1-yl)-4-methylpyrimidine-5-carboxamide] |  |
| < 1 nM |  | [2H]C([2H])([2H])Oc1cc(O[C@H]2C[C@H](N(CC3CCN(c4ccc(C(=O)N[C@H]5C(C)(C)[C@H](Oc6ccc(C#N)c(OC)c6)C5(C)C)cc4)CC3)C(C)C)C2)cc2c1C(=O)N(C1CCC(=O)NC1=O)C2=O (mixture of isomers) [compound 159, rac-N-((1r,3r)-3-(4-cyano-3-methoxyphenoxy)-2,2,4,4-tetramethylcyclobutyl)-4-(4-((((1r,3r)-3-((2-(2,6-dioxopiperidin-3-yl)-7-(methoxy-d3)-1,3-dioxoisoindolin-5-yl)oxy)cyclobutyl) (isopropyl)amino)methyl)piperidin-1-yl)benzamide] |  |
| > 100 nM |  | Cc1cc(O[C@H]2C(C)(C)[C@H](NC(=O)c3cnc(N4CC(CCN5CCC(Oc6ccc7c(c6)C(=O)N(C6CCC(=O)NC6=O)C7=O)CC5)C4)cn3)C2(C)C)cc(C)c1C#N (some centres unmarked) [compound 143, N-((1r,3r)-3-(4-cyano-3,5-dimethylphenoxy)-2,2,4,4-tetramethylcyclobutyl)-5-(3-(2-(4-((2-(2,6-dioxopiperidin-3-yl)-1,3-dioxoisoindolin-5-yl)oxy)piperidin-1-yl)ethyl)azetidin-1-yl)pyrazine-2-carboxamide] |  |
| < 1 nM |  | CC(C)N(CC1CCN(c2cnc(C(=O)N[C@H]3C(C)(C)[C@H](Oc4ccc(C#N)c(Cl)c4)C3(C)C)cn2)CC1)[C@H]1C[C@H](Oc2ccc3c(c2)C(=O)N(C2CCC(=O)NC2=O)C3)C1 (some centres unmarked) [compound 123, N-((1r,3r)-3-(3-chloro-4-cyanophenoxy)-2,2,4,4-tetramethylcyclobutyl)-5-(4-((((1r,3r)-3-((2-(2,6-dioxopiperidin-3-yl)-3-oxoisoindolin-5-yl)oxy)cyclobutyl) (isopropyl)amino)methyl)piperidin-1-yl)pyrazine-2-carboxamide] |  |
| < 1 nM |  | [2H]C([2H])([2H])Oc1cc(O[C@H]2C(C)(C)[C@H](NC(=O)c3ccc(N4CCC(CN(C(C)C)[C@H]5C[C@H](Oc6cc(OC([2H])([2H])[2H])c7c(c6)C(=O)N(C6CCC(=O)NC6=O)C7=O)C5)CC4)cc3)C2(C)C)ccc1C#N (mixture of isomers) [compound 149, rac-N-((1r,3r)-3-(4-cyano-3-(methoxy-d3)phenoxy)-2,2,4,4-tetramethylcyclobutyl)-4-(4-((((1r,3r)-3-((2-(2,6-dioxopiperidin-3-yl)-7-(methoxy-d3)-1,3-dioxoisoindolin-5-yl)oxy)cyclobutyl) (isopropyl)amino)methyl)piperidin-1-yl)benzamide] |  |
